# Earlier results as cited in US7666392B2, “Click chemistry-derived cyclopeptide derivatives as imaging agents for integrins” (Siemens Medical Solutions USA, Inc., priority 2006, dated 2010).
substance,measurement,setting,value
c(RGDyV),tumor uptake in vivo,125I-labeled,receptor-specific tumor uptake in vivo
same,tumor washout and excretion,in vivo,rapid tumor washout and unfavorable hepatobiliary excretion
